“And” between values parts separate entries of the source, which are not always exact repeats. Identical values can stand only once. Like-named read-outs stand apart in the source and are kept apart here.
How the values were obtained:
VMAT2 [1] = experiment: In vitro homogenate saturation binding (human endocrine and exocrine pancreatic tissue homogenates); conditions: human islet vs exocrine homogenates
Procedure: Endocrine (n = 4, 80% to 85% islets) or exocrine (n = 4) tissue preparations were isolated from human pancreata and homogenized in 50 mM tris(hydroxymethyl)aminomethane [TRIS] by a Polytron PT3000 homogenator (Kinematica AG, Littau, Switzerland). The tissue homogenates (0.5 to 6 mg/mL) were incubated in 1 mL of 50 mM TRIS with different concentrations of tracer around an expected dissociation constant Kd of 3 nM. The non-displaceable binding was determined by addition of 10 to 20 μM tetrabenazine (BIOTREND Chemikalien GmbH, Cologne, Germany).
All samples were incubated at RT for 60 min to reach an equilibrium and then moved onto a 1.2 μm Whatman filter (Brandel, Gaithersburg, MD, USA; pretreated with 0.05% polyethylenimine for > 1 h) by a C-48 cell harvester (Brandel, Gaithersburg, MD, USA). The filter components associated to each group were pooled and measured in a well counter (Uppsala Imanet AB, GE Healthcare, Uppsala, Sweden). Tissue samples and references were prepared in triplicates, and filter binding controls, in duplicates.
Tissue protein content (in milligram protein per sample) was assessed by a Bio-Rad Protein Assay (Bio-Rad, Hercules, CA, USA), and absorbance was measured with an EL808 microplate reader (BioTek, Winooski, VT, USA). The BP, defined as the ratio between the receptor density [Bmax] and dissociation constant [Kd], was determined by nonlinear regression.

[2] = PET/CT biodistribution in piglets; type: in vivo
Procedure: Male Swedish landrace piglets (n = 4, 15 to 17 kg, 11 to 14 weeks old) were anesthetized by Zoletil forte (Virbac, Carros Cedex, France). The animals were intubated and placed on a ventilator, and the anesthesia was maintained by 2.5% sevofluran. Normoglycemia was confirmed by determining blood glucose content (plasma glucose concentration 4.4 to 7.6 mM). The animal experiments were approved by the local ethics committee for animal research and performed in accordance with local institutional and Swedish national rules and regulations.
The PET/CT studies were performed using a Discovery ST scanner (General Electric, Milwaukee, WI, USA). All scans were acquired in 2D mode and reconstructed by OSEM iterative algorithm. Four piglets were administered 3.4 to 16.3 MBq/kg [^18F]FE-DTBZ-d4 as an intravenous [i.v.] bolus, and the biodistribution as well as the kinetics of the tracer in the abdomen was studied with a dynamic sequence over 90 min (the head first, prone, 4 frames × 30 s, 3 × 1 min, 5 × 3 min and 14 × 5 min). Arterial blood samples were acquired during the first 90 min, and both the plasma- and whole blood volume-corrected tracer contents were measured using the well counter. A whole-body PET/CT examination was performed 100 to 120 min post-administration.
The data in this study was compared to previously published PK/PD porcine data on non-deuterated [^18F]-FE-DTBZ. For details on the methodologies used in this study, see Eriksson et al..
PET and CT images were analyzed by PMOD (PMOD Technologies Ltd., Zürich, Switzerland). Values are given as means ± standard error of the mean [SEM] unless otherwise stated, and statistics are based on Student's t test.

[3] = Estimation of tracer defluorination by kinetic modeling of cortical bone uptake; type: in vivo, piglets; conditions: for half-life: male, Swedish landrace, pig, intravenous; for half-life / kdefluorination, average / kdefluorination: plasma; for half-life / t1/2 (defluorination) / kdefluorination, average / kdefluorination: piglets
Description: Since the studies on [^18F]FE-DTBZ had been performed previously without metabolite correction analysis, we decided to quantify the defluorination retroactively by kinetic modeling of the cortical bone uptake. When modeling the PK/PD of a PET tracer, we generally study the relationship between three different functions (Equation 1) which we can express in a vector form; the input function [Cinput], the transfer function [HTR], and the output function [Ctissue] were defined as follows: […]
The gradual accumulation of radioactivity in the cortical bone tissue starting around 5 min after administration was assumed to consist entirely of [^18F]F^- uptake. It is difficult to delineate the cortical bone structures in the spinal column due to its relative small thickness even if isocontour thresholding is used. Partial volume effects [PVEs] will still yield kinetics containing contributions from both the cortical bone and bone marrow. […] To reduce the contribution from non-cortical sources, VOIs over the bone marrow were drawn, and the associated kinetics was subtracted from the cortical isocontour VOIs. The resulting kinetics after this operation was assessed to describe [^18F]F^- PK/PD in the cortical bone tissue and used as the output curve Ctissue for the quantification of tracer defluorination.
The Cinput of [^18F]F^- is in this specific case not created by an instantaneous bolus, but rather from a gradual reaction where [^18F]FE-DTBZ or [^18F]FE-DTBZ-d4 is the substrate and [^18F]F^- is the product. The rate of defluorination can then be expressed in a single parameter kdefluorination if we assume that the reaction is concentration-dependent and unchanging over time (or during the time frame investigated here). Cin is then uniquely determined from the arterial blood plasma curve [Cp] and kdefluorination (Equation 3): […]
The defluorination rate constant in plasma can then be determined by minimizing Equation 4: […]
All optimization was performed using MatLab 7.8.0 (MathWorks, Inc., Natick, MA, USA).

[4] = Quantification of pancreatic uptake by one-tissue compartment model; type: in vivo, piglets; conditions: pancreas; for Kp: male, Swedish landrace, pig, intravenous; for K1, average / k2, average / K1 / k2: defluorination-corrected plasma input
Description: A one-tissue compartment model was used to estimate the compound parameter VT as well as the tissue specific rate constants K1 to k2 in the pancreas. The Cp was used as an input function, corrected for tracer metabolism by defluorination parameter kdefluorination determined from cortical bone uptake. The kinetic parameters were estimated by the PMOD modeling module PKIN.

[5] = Radiochemical stability of formulated product (analytical HPLC); type: physicochemical; conditions: for up to 5 h
Procedure: The radiochemical purity, identity, and stability of [^18F]FE-DTBZ-d4 were determined by analytical HPLC using a reverse-phase μBondapak column (C18, 3.9 Ø × 300 mm, 10 μm, Waters Corporation) with mobile phase CH3CN/10 mM H3PO4 (15:85) and a flow rate of 3 mL/min. The effluent was monitored with an UV absorbance detector (λ = 214 nm) coupled with a radioactive detector (β-flow, Beckman Coulter, Inc., Fullerton, CA, USA). The identity of [^18F]FE-DTBZ-d4 was confirmed by co-injection with the authentic nonradioactive FE-DTBZ-d4.

VMAT2 [6] = molecular target: T1, VMAT2 (Homo sapiens, UniProt Q05940); set-up: method as in PMID 20346875; conditions: human islet homogenate, described previously; cited from earlier work
T1 construct: tissue preparations were isolated from human pancreata and homogenized; from tissue; host or cells: human pancreas: endocrine (80% to 85% islets) and exocrine tissue homogenates
T1 sequence (Q05940 whole entry): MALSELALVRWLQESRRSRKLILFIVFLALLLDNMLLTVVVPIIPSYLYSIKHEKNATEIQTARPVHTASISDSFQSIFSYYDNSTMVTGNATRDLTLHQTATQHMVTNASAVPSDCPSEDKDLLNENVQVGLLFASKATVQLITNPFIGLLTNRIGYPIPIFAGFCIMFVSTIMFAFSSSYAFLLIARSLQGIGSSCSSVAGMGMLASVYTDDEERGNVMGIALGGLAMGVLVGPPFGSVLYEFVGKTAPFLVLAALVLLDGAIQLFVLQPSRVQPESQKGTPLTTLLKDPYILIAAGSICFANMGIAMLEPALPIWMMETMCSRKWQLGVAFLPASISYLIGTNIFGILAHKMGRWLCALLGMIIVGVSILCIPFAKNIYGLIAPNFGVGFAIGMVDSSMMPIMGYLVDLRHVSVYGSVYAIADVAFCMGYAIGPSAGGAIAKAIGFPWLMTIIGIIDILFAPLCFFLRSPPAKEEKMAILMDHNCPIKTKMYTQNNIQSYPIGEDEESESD

VMAT2 [7] = test system: VMAT2; set-up: method as in PMID 20346875; conditions: cited from earlier work
[8] = set-up: method as in PMID 20346875; conditions: piglet model, PET/CT 90 min after tracer administration; cited from earlier work
[9] = Procedure: Arterial blood and plasma samples were measured using the well-counter. The animals were positioned with a field of view as in the [^18F]FE-DTBZ-d4 dynamic scan.
Tissue volumes of interest [VOIs] and regions of interest [ROIs] were delineated on CT images or partially summed PET images. The kinetic uptake in the cortical bone tissue for all three tracers was assessed by generating isocontour VOIs over the lumbar vertrebral bodies in CT images.
The HTR is given in Equation 2, where φ1, φ2, θ1, and θ2 are macro-parameters determined by the rate constants K1, k2, k3, and k4 [18]. VT and VS denote the total and specific binding distribution volumes, respectively:
The [^18F]F^- HTR in the cortical bone was determined by the kinetic modeling module PKIN for PMOD.

[10] = average, read-out: t1/2 (defluorination), average
[11] = read-out: Half-life stability against defluorination
[12] = individual experiments, [^18F]FE-DTBZ from retrospective analysis of earlier data
[13] = mean ± SEM as given in text/footnote
[14] = cortical spinal bone, average of 3 pigs
[15] = cortical spinal bone, individual pigs
[16] = cortical spinal bone, mean ± SEM as given in text

## COc1cc2c(cc1OCCF)CCN1C[C@@H](CC(C)C)[C@H](O)C[C@H]21 [[^18F]FE-DTBZ-d4, (2R,3R,11bR)-9-(2-fluoroethoxy)-3-isobutyl-10-methoxy-2,3,4,6,7,11b-hexahydro-1H-pyrido[2,1-a]isoquinolin-2-ol]
VMAT2 [1]
  BPislet/BPexocrine ratio: 16
[2]; i.v. bolus
  Bile tracer and metabolites: > 10 SUV
[2]; i.v. bolus, 90 min
  Pancreas uptake after 90 min: 1.8 SUV
[2]; i.v. bolus, shortly after administration
  Pancreas average peak uptake: 2.64 SUV
[2]; within the initial minutes, no further accumulation
  Spinal column vertebrae VOIs uptake: 1.4 SUV
[3]; [10]
  half-life: 7.23 h
[3]; [11]
  half-life: > 6 h
[3]; individual experiments
  t1/2 (defluorination): 7.312 h and 27.507 h and 3.292 h and 13.13 h
[3]; average
  kdefluorination, average: 2.67e-05 s⁻¹
[3]; [12]
  kdefluorination: 2.67e-05 s⁻¹ and 7e-06 s⁻¹ and 5.83e-05 s⁻¹ and 1.47e-05 s⁻¹
[3]; [13]
  kdefluorination: 2.67e-05 ± 1.2e-05 s⁻¹
[3]; vs non-deuterated analogue
  Increase in half-life stability: six fold increase
[4]; average, read-out: VT, average
  Kp: 3.69
[4]; average
  K1, average: 0.81 (cc/min)/cc
  k2, average: 0.26 min⁻¹
[4]; individual experiments
  K1: 0.65 (cc/min)/cc and 1.09 (cc/min)/cc and 1.13 (cc/min)/cc and 0.36 (cc/min)/cc
  k2: 0.32 min⁻¹ and 0.25 min⁻¹ and 0.37 min⁻¹ and 0.10 min⁻¹
  VT (total distribution volume, K1/k2): 2.05 cc/cc and 4.39 cc/cc and 3.06 cc/cc and 3.64 cc/cc
[5]
  Radiochemical purity of the formulated product (stability): > 98%

## COc1cc2c(cc1OCC[18F])CCN1CC(CC(C)C)C(O)CC21 (centres unmarked) [[^18F]FE-DTBZ]
[3]; [10]
  half-life: 1.06 h
[3]; individual experiments, read-out: t1/2 (defluorination)
  half-life: 0.77 h
[3]; [11]
  half-life: > 1 h
[3]; individual experiments
  t1/2 (defluorination): 1.46 h and 0.952 h
[3]; average
  kdefluorination, average: 0.0002 s⁻¹
[3]; [12]
  kdefluorination: 0.00025 s⁻¹ and 0.000132 s⁻¹ and 0.0002023 s⁻¹
[3]; [13]
  kdefluorination: 0.0002 ± 3.3e-05 s⁻¹
[4]; average, read-out: VT, average
  Kp: 4.17
[4]; individual experiments, read-out: VT (total distribution volume, K1/k2)
  Kp: 3.39
[4]; average
  K1, average: 0.26 (cc/min)/cc
  k2, average: 0.064 min⁻¹
[4]; individual experiments
  K1: 0.27 (cc/min)/cc and 0.30 (cc/min)/cc and 0.20 (cc/min)/cc
  k2: 0.08 min⁻¹ and 0.07 min⁻¹ and 0.04 min⁻¹
  VT (total distribution volume, K1/k2): 4.47 cc/cc and 4.65 cc/cc
VMAT2 [6]
  BPislet: 110.4 femtomoles per milligram protein per nanoMolar
VMAT2 [7]; from previously described BP values
  BPislet/BPexocrine ratio: 11.2
VMAT2 [7]; human exocrine homogenate, described previously
  BPexocrine: 9.8 femtomoles per milligram protein per nanoMolar
[8]
  Spinal column uptake at the end of the experiments: 3.1 SUV

## [18FH] [[^18F]F^-, Fluorine-18 fluoride]
[9]; cortical spinal bone model, average of 3 pigs
  Plasma delay, average: 25.67 s
[9]; cortical spinal bone model, individual pigs
  Plasma delay: 25.6 s and 23.5 s and 27.9 s
[9]; [14]
  K1, average: 0.57 (cc/min)/cc
  VS, average: 27.53 cc/cc
  VS/VT, average: 0.99
  VT, average: 27.9 cc/cc
  k2, average: 1.54 min⁻¹
  k3, average: 0.42 min⁻¹
  k4, average: 0.0058 min⁻¹
[9]; [15]
  K1: 0.71 (cc/min)/cc and 0.44 (cc/min)/cc and 0.56 (cc/min)/cc
  VS (specific binding distribution volume): 35.9 cc/cc and 19.8 cc/cc and 26.9 cc/cc
  VS/VT: 0.99
  VT (total distribution volume): 36.4 cc/cc and 20.1 cc/cc and 27.2 cc/cc
  k2: 1.27 min⁻¹ and 1.78 min⁻¹ and 1.57 min⁻¹
  k3: 0.39 min⁻¹ and 0.5 min⁻¹ and 0.38 min⁻¹
  k4: 0.0061 min⁻¹ and 0.0062 min⁻¹ and 0.0051 min⁻¹
[9]; [16]
  k3: 0.42 ± 0.04 min⁻¹
  k4: 0.0058 ± 0.0004 min⁻¹
[9]; cortical spinal bone, model prediction
  Signal coming from the nonspecific or free tracer: less than 1%

Reference: publication PMC3284452, “Decreased defluorination using the novel beta-cell imaging agent [^18F]FE-DTBZ-d4 in pigs examined by PET” (EJNMMI Research, 2011)
